Test results taken from patent US9737476B2, “Cosmetic use of an albizia julibrissin extract and corresponding topical composition” (Sederma, priority 2011, dated 2017).

Tests used:
MMP1 = assay: Metalloproteinase in culture media after cigarette smoke extract stress (ELISA); format: cell-based, human; settings: Trolox 500 μM
Method: Human dermal fibroblasts are cultured until confluence. Then cells are contacted with or without the test products during 24 hours. Then cells are stressed with an extract of cigarette smoke with or without the test products. After a last incubation with or without the test products, metallo-proteinases MMP1 and MMP2 present in the culture media are measured by ELISA and reduced to the number of cells (evaluated with the Hoescht reagent).

Fibroblasts = assay: Accumulation of lipofuscin AGE-pigment (dityrosine marker); format: cell-based, human; settings: Trolox 500 μM; p < 0.01
Description: Principle and protocol: MGO is indirectly involved in the production of another group of toxins called lipofuscin. This pigment, which is seen on skin sections, is yellow in colour. It is poorly characterised as it is formed from an aggregate of different damaged cell components. Reduced functioning of the proteasome allows it to accumulate. Glycation (and therefore alteration) of the proteasome promotes the accumulation of this toxic pigment.
The same “fatiguing” cell stress as above in point 2a was used, alternating two rest periods (+/− of Albizia Julibrissin extract) and 2 periods of stress (+/− the Albizia Julibrissin extract with 500 μM microns of MGO). At the end of the second glycating stress, a dosage of the lipofuscin marker, the dityrosine was performed on the cell and reduced to the number of cells.

soluble bovine elastin = assay: Non enzymatic glycation of elastin with fructose (fluorescence); format: biochemical
Method: Non-enzymatic glycation occurring between a protein and a reducing sugar like fructose or glucose is a spontaneous and slow reaction that can be accelerated by heat. In this test, the protein is soluble bovine elastin and the reducing sugar is fructose. They are incubated with or without test products at 50° C. for 9 days. Final products resulting from glycation may be quantified by fluorescence (λex=360 nm and λem=460 nm).

[1] = test system: human dermal fibroblasts (HDF); assay: Measurement of carboxymethyl-lysine (CML) released by fibroblasts after MGO glycating stress (Elisa); format: cell-based; settings: aminoguanidine 0.03%; p < 0.01
Method: For the tests achieved on cell cultures, a hydro-glycolic extract obtained according to Example A) above comprising 2% of albizine was used at 0.006% diluted in aqueous excipients, of the type of cell culture media.
Principle and protocol: CML, a specific type of AGEs, accumulates during time in particular on the dermis proteins synthesized by fibroblasts. In vitro, on fibroblasts in culture, it is possible to accelerate this phenomenon by a glycating stress.
500 μM of methylglyoxal (MGO) were applied to confluent human dermal fibroblasts (HDF) to provoke AGE formation. After this glycating contact at 37° C. during 4 days, the MGO was removed from the cultures by rinsing and the Albizia Julibrissin extract was applied for 5 days. The supernatants were then removed for Elisa measurement of CML released by the fibroblasts. Cells were counted in parallel from the cell layers. Two independent tests were performed.

Question: `Cc1c(C)c2c(c(C)c1O)CCC(C)(C(=O)O)O2` (stereo not drawn) [Trolox] was tested. Which MMP1 (MMP1; control stress 9200 +/− 1590) did it give?
Answer: 3962 +/− 759 ng/10^6 cells

Question: What about the “% change in MMP1 vs. control stress” value (MMP1; p < 0.05) of the same molecule?
Answer: −57%; p < 0.05

Question: What about the “% change in dityrosine, positive MGO control” value (Fibroblasts) of the same molecule?
Answer: *AFU: Arbitrary fluorescence unit; positive MGO control: Trolox 500 μM: −61.1% (p < 0.01)

Question: With Darutoside as the molecule, how does the Glycation (soluble bovine elastin; 15 ppm (combination: 15 ppm Darutoside + 15 ppm extract), elastin + fructose, 50° C., 9 days, control 6096 +/− 438) read?
Answer: 5843 +/− 383 UFA

Question: For `N=C(N)NN` [aminoguanidine], which “% change in glycation vs. control” value (soluble bovine elastin; aminoguanidine 0.03%, p < 0.01) is on record?
Answer: Aminoguanidine 0.03%: −99%; p < 0.01

Question: And the “% change in CML, positive control” value [1]?
Answer: Positive control aminoguanidine 0.03%; −41% CML; (p < 0.01).
